Test results from patent US20250186403A1 (ARIZONA BOARD OF REGENTS ON BEHALF OF THE UNIVERSITY OF …, priority 2022, published 2025).
Values joined by “and” are separate entries in the source; they are usually repeats but may differ in a detail not shown here. Equal values may be shown once.

How the values were obtained:
[1] = biological target: T1, recombinant Drosophila Hh protein (C-Hh-Y) (Drosophila melanogaster, UniProt Q02936); experiment: Hh cholesterolysis assay; assay type: biochemical; conditions: CMN at up to 200 µM, 22 h
T1 construct: His tag (inferred from 'purified similarly', i.e. Ni-NTA); made in house; host or cells: E. coli LMG194
T1 sequence (Q02936 258-471): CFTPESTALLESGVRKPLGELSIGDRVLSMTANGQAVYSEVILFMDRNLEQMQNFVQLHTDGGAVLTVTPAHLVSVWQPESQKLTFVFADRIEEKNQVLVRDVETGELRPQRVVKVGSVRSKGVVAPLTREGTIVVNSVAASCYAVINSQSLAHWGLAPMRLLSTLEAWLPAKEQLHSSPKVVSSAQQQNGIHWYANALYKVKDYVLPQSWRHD
Description: The Tm values were calculated by Thermal shift software. […] The assay was repeated three times. […]
The hedgehog FRET protein C-Hh-Y was expressed and purified similarly, except that the protein was expressed in E. coli strain LMG194, induced with arabinose at 16° C. overnight, and the purified protein was stored in a storage buffer containing 10% glycerol and 4 mM TCEP.
Hh cholesterolysis assay: Cholesterolysis assay was done as per published methodology with modifications. […] With 50 μl reaction volume, a fixed volume of DMSO or CNM with varying concentrations (final 6.25 to 200 µM) were added and incubated at RT for 30 min. Cholesterolysis was induced by adding 1 μl stock solution of cholesterol in ethanol to each tube to attain a final concentration of 200 µM. After incubating at RT for 22 h, 20 μl of the reaction mixture was mixed with an equal volume of reducing SDS-PAGE loading buffer and loaded onto the 12% SDS-PAGE gel, followed by coomassie blue staining. Gel images were taken using the ChemiDoc imaging system (Bio-Rad). Band densities were analyzed using the Image lab software and compared with Student's t-test using the GraphPad Prism software version 9.1.0.

Cne-WT = experiment: Fungistatic/fungicidal assay (MFC); assay type: cell-based, Cryptococcus neoformans
Description: The assay was performed by microdilution method as explained in materials and method. […] Cells in the wells were mixed by pipetting, and 30 μl of the culture taken from each well was plated onto SD agar plates. […] The MFC is the minimum drug concentration where there are no colonies. If the ratio of MFC/MIC≤4 is considered fungicidal.
Freshly grown Cne-WT colony on SD agar plate was resuspended in sterile water to give an OD600 of 0.1. This fungal suspension was further diluted at 1:500 in RPMI-MOPS media. A volume of 100 μl of the final cell suspension was added to each well in the assay plates. Additionally, 100 μl of final cell suspension was plated onto the SD agar plate to examine the actual cell count; and colonies were counted after 3 days. The assay plates were incubated at 30° C. for 48 h in a humidified incubator. The culture wells were mixed with micropipette tips, and 20 μl of the culture along with 70 μl RPMI-MOPS was plated onto the SD agar plates (100 mm) and incubated at 30° C. for 72 h before counting the colonies. […] The ratio of MFC/MIC≤4 was considered fungicidal and >4 as fungistatic.

[2] = Cytotoxicity (Cell Counting Kit-8); assay type: cell-based; conditions: human, A549 cells
Description: (§1) FIGS. 4A, 4B, and 4C show in vitro and in vivo toxicity. […] A549 and RAW 264.7 cells were grown in 96 well plates till 70% confluent. RAW 264.7 cells were differentiated into macrophages using PMA. […] The cell viability was estimated by Cell Counting Kit-8 (GlpBio, CA, USA), and absorbance was read at 450 nm using microplate reader Synergy H1 (BioTek). CC50 was calculated by GraphPad prism. […] Abs: absorbance. […] Bodyweight and other parameters were monitored daily (Table 3).
Approximately 2×10^4 A549 cells in MEM media with 10% FBS were seeded per well of 96 well plates and incubated at 37° C. to reach 70% confluent. […] The plates were incubated for 48 h before the addition of 10 μl water-soluble […] (Cell counting kit-8, Glpbio Technology) to each well and incubated at 37° C. for 3 h.

[3] = 7-day toxicity study in mice; assay type: in vivo, BALB/c mice; parameters: key to Movement score (first line, r17) / Movement score (second line, r19): 0 = Normal; 1 = slight incoordination/decreased righting response; 2 = tiptoe walking or altered gait involving 1 limb; 3 = staggering or paralysis or tremors of 2 or more limbs; key to Coat condition score: 0 = normal/groomed; 1 = rough; 2 = ruffled/unkempt; key to Posture score: 0 = normal; 1 = slightly hunched; 2 = moderately hunched; 3 = severally hunched; conditions: for Coat condition score / Death / Movement score (first line, r17) / Movement score (second line, r19) / Posture score / Seizure: individual mice
Description: as §1
The mice were observed twice daily for general health, movement, activity, and coat condition and scored. Food and water were ad libitum. On day 7, the mice were euthanized, and necropsy was done to see any changes in the organs as compared to the normal mice by visual observation.

[4] = Cytotoxicity (Cell Counting Kit-8); assay type: cell-based, murine; conditions: mouse, PMA-differentiated RAW 264.7 macrophage cells, PMA-differentiated RAW 264.7 cells
Description: as §1
Cells were seeded in 96 well plates at 1.5×10^4 cells/well of 96 well plates in DMEM media and incubated at a CO2 incubator at 37° C. for 24 h. For differentiation to macrophages, the media was replaced with fresh media containing 100 nM PMA and further incubated for 48 h in a CO2 incubator.

A. fumigatus = experiment: MIC by microdilution method (resazurin); assay type: cell-based; conditions: Aspergillus fumigatus
Description: Serial double dilution of the CMN was done in the RPMI-MOPS medium. Freshly grown fungal culture from the SD agar plate was resuspended in sterile water and diluted to get 0.1 OD at 600 nm. […] The plates were incubated at 30° C. for 48 h. Plates were checked for growth by visual observation. For Afu, resazurin was added to 44 µM and incubated for 12 h at 37° C. before noting a change in color from blue to pink by live cells. MIC is defined as the minimum concentration at which there is no growth when observed visually.

[5] = CMN 5 mg/kg BW oral daily 7 days
[6] = CMN 10 mg/kg BW oral daily 7 days
[7] = CMN 20 mg/kg BW oral daily 7 days
[8] = CMN 40 mg/kg BW oral daily 7 days

CNc1ccc2oc(C[C@H]3O[C@@]4(CC[C@H]3C)O[C@H]([C@H](C)C(=O)c3ccc[nH]3)[C@H](C)C[C@H]4C)nc2c1C(=O)O [CMN, calcimycin]
density of spliced product, hedgehog cholesterolysis [1]: did not change the density of spliced product
nature of inhibition (fungistatic/fungicidal) (Cne-WT): fungistatic (>4 as fungistatic)
MFC (Cne-WT; Cryptococcus neoformans, 48 h culture, plated, colonies day 3, read-out: MFC (minimum fungicidal concentration)): > 26 µg/mL
CC50 at 48 h [2]: 16.3 µM and 8.6 µg/mL
other morbidity ([3]; 40 mg/ml daily oral gavage, 7 days): no other morbidity was observed
loss of body weight ([3]; 40 mg/ml daily oral gavage, by day 7): 8%
activity of mice ([3]; 40 mg/ml, for 1-2 h post-dosing): slower
Coat condition score [3, 5]: 0
Death [3, 5]: 0
Movement score (first line, r17) [3, 5]: 0
Movement score (second line, r19) [3, 5]: 0
Posture score [3, 5]: 0
Seizure [3, 5]: 0
Coat condition score [3, 6]: 0
Death [3, 6]: 0
Movement score (first line, r17) [3, 6]: 0
Movement score (second line, r19) [3, 6]: 0
Posture score [3, 6]: 0
Seizure [3, 6]: 0
Coat condition score [3, 7]: 0
Death [3, 7]: 0
Movement score (first line, r17) [3, 7]: 0
Movement score (second line, r19) [3, 7]: 0
Posture score [3, 7]: 0
Seizure [3, 7]: 0
Coat condition score [3, 8]: 0
Death [3, 8]: 0
Movement score (first line, r17) [3, 8]: 1
Movement score (second line, r19) [3, 8]: 0
Posture score [3, 8]: 0
Seizure [3, 8]: 0
change in activity, appearance of fur, weight loss ([3]; daily oral gavage at 5, 10, 20 mg/ml, 7 days): no significant change
CC50 at 48 h [4]: 8.6 µM and 4.5 µg/mL
MIC (A. fumigatus): > 50 µM
